According to patent US9321790B2, “Pyrimidinone derivatives as antimalarial agents” (SANOFI, priority 2012, dated 2016):
pIC50: −log10 of the molar value.

What was measured:
[1] = system: Plasmodium falciparum (strain NF54); experiment: Antimalarial activity test: growth of Plasmodium falciparum in infected human erythrocytes, 3H-hypoxanthine incorporation; format: cell-based; details: strain NF54 sensitive to chloroquine, 72 h total incubation
Protocol: The compounds according to the invention underwent pharmacological trials to determine their inhibitory effect on the growth of Plasmodium falciparum (strain NF54 sensitive to inhibition with chloroquine) in an in vitro test using infected human erythrocytes. The growth of the parasites is measured via the incorporation of tritiated hypoxanthine compared with the incorporation in the absence of drug. The tests are performed in 96-well microplates (Falcon™ 96-well microtiter plates, ref. No. 353072) in RPMI 1640 solutions (10.44 g/l) (without hypoxanthine) with HEPES (5.94 g/l), NaHCO3 (2.1 g/l), neomycin ([…])+AlbumaxR II (5 g/l) supplemented with human erythrocytes with a final hematocrit of 1.25% and a final parasitemia of 0.15%.
The stock solution of the compounds is prepared at 10 mg/mL in DMSO. For the test, fresh solutions at the desired concentrations are prepared in RPMI medium. For the test, 100 μl of compound are mixed with 100 μl of infected blood. For the determination of the IC50 values, the compounds are tested in twofold serial dilution.
The plates are incubated at 37° C. under a humid atmosphere with 93% N2, 4% CO2 and 3% O2. After 48 hours, 50 μl of ^3H-hypoxanthine (=0.5 μCi) in RPMI medium are added to each well and incubation is continued for a further 24 hours. Next, the plates are washed with distilled water and the cell lyzate is transferred onto fiberglass filters. The filters are dried and the radioactivity is determined by liquid scintillation. The results in cpm are converted into percentages of inhibition. The inhibitory activity is given by the concentration that inhibits 50% of the growth of the parasite relative to a control without compound.

[2] = biological target: human PI3Kα (Homo sapiens (Human), UniProt P42336); experiment: Human PI3Kα activity test (luciferin/luciferase ATP consumption, KinaseGlo); format: biochemical; details: PI3Kα (p110α/p85α), 50 μM PIP2, 2 μM ATP, 90 minutes; read-out: IC50 Human PI3Kα
Protocol: The test uses a luciferin/luciferase system to measure the concentration of ATP and its consumption during the enzymatic reaction.
After 90 minutes, the reaction is quenched by adding 20 μl/well of KinaseGlo reagent (Promega V6713). After 10 minutes in the dark, the luminescence is read using a PHERAStar microplate reader (reading at 0.8 sec/well).

[3] = Plasmodium falciparum, Erythrocyte

Sequence of human PI3Kα (P42336 whole entry): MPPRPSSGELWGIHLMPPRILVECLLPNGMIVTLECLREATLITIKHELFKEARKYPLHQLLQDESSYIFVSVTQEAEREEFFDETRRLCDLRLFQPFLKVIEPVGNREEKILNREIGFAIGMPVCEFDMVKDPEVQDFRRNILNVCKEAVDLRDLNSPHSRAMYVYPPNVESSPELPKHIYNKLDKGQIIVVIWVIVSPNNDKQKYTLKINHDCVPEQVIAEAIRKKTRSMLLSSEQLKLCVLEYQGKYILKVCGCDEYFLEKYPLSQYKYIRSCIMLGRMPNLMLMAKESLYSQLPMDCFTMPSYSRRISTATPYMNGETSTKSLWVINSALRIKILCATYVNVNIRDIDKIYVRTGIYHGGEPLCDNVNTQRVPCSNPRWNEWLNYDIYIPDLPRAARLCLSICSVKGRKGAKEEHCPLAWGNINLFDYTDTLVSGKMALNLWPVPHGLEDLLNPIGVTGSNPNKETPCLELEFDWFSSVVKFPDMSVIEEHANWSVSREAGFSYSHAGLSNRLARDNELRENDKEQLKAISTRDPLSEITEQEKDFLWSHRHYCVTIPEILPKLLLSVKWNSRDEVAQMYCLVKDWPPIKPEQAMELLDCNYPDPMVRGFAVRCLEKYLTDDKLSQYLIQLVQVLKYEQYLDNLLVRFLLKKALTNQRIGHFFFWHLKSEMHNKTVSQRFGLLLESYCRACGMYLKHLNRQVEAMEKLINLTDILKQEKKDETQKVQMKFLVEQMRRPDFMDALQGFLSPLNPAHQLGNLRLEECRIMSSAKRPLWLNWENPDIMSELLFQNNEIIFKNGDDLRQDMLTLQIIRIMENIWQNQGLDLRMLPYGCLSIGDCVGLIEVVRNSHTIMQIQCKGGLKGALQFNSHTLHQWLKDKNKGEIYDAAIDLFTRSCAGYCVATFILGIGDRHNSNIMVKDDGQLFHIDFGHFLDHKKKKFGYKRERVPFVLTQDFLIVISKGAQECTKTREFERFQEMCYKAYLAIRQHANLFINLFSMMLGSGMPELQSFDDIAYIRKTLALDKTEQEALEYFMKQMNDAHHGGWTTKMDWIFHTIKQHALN
Sequence of human PI3Kα (P27986 whole entry partner): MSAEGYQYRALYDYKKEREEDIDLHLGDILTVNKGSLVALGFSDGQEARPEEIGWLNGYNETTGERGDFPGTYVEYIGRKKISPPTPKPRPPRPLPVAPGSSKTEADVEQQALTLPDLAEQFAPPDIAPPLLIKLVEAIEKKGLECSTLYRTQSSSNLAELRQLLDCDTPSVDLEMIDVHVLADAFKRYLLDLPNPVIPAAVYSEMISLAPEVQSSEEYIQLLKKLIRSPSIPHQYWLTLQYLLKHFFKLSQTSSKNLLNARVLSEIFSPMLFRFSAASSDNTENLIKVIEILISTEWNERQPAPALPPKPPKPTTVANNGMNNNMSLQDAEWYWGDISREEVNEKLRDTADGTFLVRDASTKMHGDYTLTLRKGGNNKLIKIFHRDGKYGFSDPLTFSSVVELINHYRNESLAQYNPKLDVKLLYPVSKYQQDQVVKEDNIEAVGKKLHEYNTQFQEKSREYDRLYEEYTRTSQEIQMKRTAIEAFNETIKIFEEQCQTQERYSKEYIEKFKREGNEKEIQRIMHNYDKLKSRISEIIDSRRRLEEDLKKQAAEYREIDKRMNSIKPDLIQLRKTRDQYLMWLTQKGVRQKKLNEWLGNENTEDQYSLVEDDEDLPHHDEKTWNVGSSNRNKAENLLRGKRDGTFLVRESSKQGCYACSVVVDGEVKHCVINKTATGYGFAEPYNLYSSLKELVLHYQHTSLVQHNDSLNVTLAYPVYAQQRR

`CCC(O)(CC)CN1c2nc(N3C[C@@H]4C[C@H]3CO4)cc(=O)n2CC[C@H]1C(F)(F)F` [Compound 54, (8S)-9-(2-ethyl-2-hydroxybutyl)-2-(1S,4S)-2-oxa-5-azabicyclo[2.2.1]hept-5-yl-8-trifluoromethyl-6,7,8,9-tetrahydropyrimido[1,2-a]pyrimidin-4-one] was tested. Which pIC50 [1, 3] did it give?
Its pIC50 is 8.00.

What about the pIC50 [2] of the same compound?
The pIC50 was 5.66.

`O=C(CN1c2nc(N3C[C@@H]4C[C@H]3CO4)cc(=O)n2CC[C@H]1C(F)(F)F)c1ccc(F)cc1F` [Compound 48, (8S)-9-[2-(2,4-difluorophenyl)-2-oxoethyl]-2-(1S,4S)-2-oxa-5-azabicyclo[2.2.1]hept-5-yl-8-trifluoromethyl-6,7,8,9-tetrahydropyrimido[1,2-a]pyrimidin-4-one] was tested. Which pIC50 [1, 3] did it give?
The pIC50 was 7.57.

What about the pIC50 [2] of the same compound?
Its pIC50 is under 5.00.

With `O=C(CN1c2nc(N3C[C@@H]4C[C@H]3CO4)cc(=O)n2CC[C@H]1C(F)(F)F)c1ccc(N2CCOCC2)cc1` [Compound 41, (8S)-9-[2-(4-Morpholin-4-ylphenyl)-2-oxoethyl]-2-(1S,4S)-2-oxa-5-azabicyclo[2.2.1]hept-5-yl-8-trifluoromethyl-6,7,8,9-tetrahydropyrimido[1,2-a]pyrimidin-4-one] as the compound, how does the pIC50 [1, 3] read?
The pIC50 was 6.03.

What about the pIC50 [2] of the same compound?
Its pIC50 is 5.38.

Which results are given for `CN(C)CCOc1ccc(CCN2c3nc(N4C[C@@H]5C[C@H]4CO5)cc(=O)n3CC[C@H]2C(F)(F)F)cc1` [Compound 117, (8S)-9-{2-[4-(2-Dimethylaminoethoxyl)phenyl]ethyl}-2-(1S,4S)-2-oxa-5-azabicyclo[2.2.1]hept-5-yl-8-trifluoromethyl-6,7,8,9-tetrahydropyrimido[1,2-a]pyrimidin-4-one]?
pIC50 [1, 3]: 8.22; pIC50 [2]: 6.42

With `O=C(CN1c2nc(N3C[C@@H]4C[C@H]3CO4)cc(=O)n2CC[C@H]1C(F)(F)F)c1cccnc1C(F)(F)F` [Compound 60, (8S)-2-(1S,4S)-2-Oxa-5-azabicyclo[2.2.1]hept-5-yl-9-[2-oxo-2-(2-trifluoromethylpyrid-3-yl)ethyl]-8-trifluoromethyl-6,7,8,9-tetrahydropyrimido[1,2-a]pyrimidin-4-one] as the compound, how does the pIC50 [1] read?
Its pIC50 is 7.72.

What about the pIC50 [2] of the same compound?
Its pIC50 is under 5.00.

What does the source list for `O=C(CN1c2nc(N3C[C@@H]4C[C@H]3CO4)cc(=O)n2CC[C@H]1C(F)(F)F)C1CCOCC1` [Compound 62, (8S)-2-(1S,4S)-2-Oxa-5-azabicyclo[2.2.1]hept-5-yl-9-[2-oxo-2-(tetrahydropyran-4-yl)ethyl]-8-trifluoromethyl-6,7,8,9-tetrahydropyrimido[1,2-a]pyrimidin-4-one]?
pIC50 [1, 3]: 7.96; pIC50 [2]: < 5.00

`Cc1cncc(C(=O)CN2c3nc(N4C[C@@H]5C[C@H]4CO5)cc(=O)n3CC[C@H]2C(F)(F)F)c1` [Compound 15, (8S)-9-[2-(5-methylpyrid-3-yl)-2-oxoethyl]-2-(1S,4S)-2-oxa-5-azabicyclo[2.2.1]hept-5-yl-8-trifluoromethyl-6,7,8,9-tetrahydropyrimido[1,2-a]pyrimidin-4-one] was tested. Which pIC50 [1, 3] did it give?
The pIC50 was 6.82.

And the pIC50 [2]?
Its pIC50 is under 5.14.

`O=C(CN1c2nc(N3C[C@@H]4C[C@H]3CO4)cc(=O)n2CC[C@H]1C(F)(F)F)c1ccccn1` [Compound 68, (8S)-2-(1S,4S)-2-oxa-5-azabicyclo[2.2.1]hept-5-yl-9-(2-oxo-2-pyrid-2-ylethyl)-8-trifluoromethyl-6,7,8,9-tetrahydropyrimido[1,2-a]pyrimidin-4-one] was tested. Which pIC50 [1, 3] did it give?
Its pIC50 is 7.57.

What about the pIC50 [2] of the same compound?
Its pIC50 is 5.18.

`O=c1cc(N2C[C@@H]3C[C@H]2CO3)nc2n1CC[C@@H](C(F)(F)F)N2CCc1ccc(OCCN2CCOCC2)cc1` [Compound 111, (8S)-9-{2-[4-(2-Morpholin-4-ylethoxy)phenyl]ethyl}-2-(1S,4S)-2-oxa-5-azabicyclo[2.2.1]hept-5-yl-8-trifluoromethyl-6,7,8,9-tetrahydropyrimido[1,2-a]pyrimidin-4-one] was tested. Which pIC50 [1, 3] did it give?
Its pIC50 is 8.30.

What about the pIC50 [2] of the same compound?
The pIC50 was 6.48.
